Reference: US20210085749A1, “Therapeutic and Neuroprotective Peptides” (Allegro Pharmaceuticals, LLC, priority 2017, published 2021)
“And” between values parts separate entries of the source, which are not always exact repeats. Equal values may be shown once. “Also recorded” adds a separate entry of the source. One block for each molecule: values may come before it. Square brackets hold non-standard residues; d marks the D form. Peptide text beside a SMILES is read from it. Cya = N[CH](CS(=O)(=O)O)C(=O)O

What was measured:
ARPE-19 cells = test: In vitro protection of RPE cells against hydrogen peroxide, Trypan blue exclusion cell count; type: cell-based; conditions: 8 hours post exposure
Experimental: Hydrogen peroxide (H2O2), a physiological mediator of oxidative stress, is known to induce apoptosis in retinal pigment epithelial (RPE) cells.
ARPE-19 cells were incubated in DMEM/F12 medium supplemented with 10% fetal bovine serum (FBS) and 50 μg/ml streptomycin and 50 μg/ml of penicillin at 37° C. in an atmosphere of 5% CO2.To induce differentiation, ARP-19 cells were cultured in a Laminin coated transwells for 2 weeks in the same medium supplemented with 1% FBS and antibiotics. The RPE cells were then isolated and aliquots of about 150 μl-200 μl of cell suspension were dispensed into the petri dishes containing control medium. The cells were then incubated at 37 degrees C. for 24 hours before use.
Thereafter, the following four (4) separate neuronal cell dishes were prepared as shown below: • A) Control Retinal RPE cells; • B) Retinal RPE cells incubated with 1.0 mg/ml ALG-1001 (Luminate); • C) Retinal RPE cells incubated with 100 μM of Hydrogen Peroxide; and • D) Retinal RPE cells incubated with 1.0 mg/ml ALG-1001 (Luminate) for 24 hours before exposure to 100 μM of Hydrogen Peroxide.
(§1) Eight (8) hours post exposure, the cell numbers were measured using Trypan blue exclusion assay in a Neubaur Chamber.

Wister rat retina = test: In vivo dose-related neurotoxic effects of intravitreal Kainic acid, retinal histopathology; design: species or system Wister rats; conditions: intravitreal 20 μl of 0.5, 5.0, 50.0 mM; 24 hours post treatment
Experimental: The right eyes of 4 Wister rats were injected intravitreally with 20 μl of the four different solutions, as follows: A) BSS solution as control, B) 0.5 mM of Kainic acid, C) 5.0 mM of Kainic acid and D) 50.0 mM of Kainic acid.
The rats were sacrificed 24 hours post treatment and the eyes were prepared for Histopathology examination.

Retinal Neuronal cells = test: In vitro protection of retinal neuronal cells against Kainic acid, Trypan blue exclusion cell count; type: cell-based, CD1 mice; conditions: 8 hours post exposure
Experimental: CD1 mice were euthanized by decapitation, eyes were rapidly enucleated into DMEM complement with antibiotic solution and the retina were isolated from the pigment epithelium.
The isolated retina was incubated in Hank's medium containing 2.5 mg/ml papain and 0.1 mg/ml of cysteine for 15 minutes at 30° C. After rinsing the Hank's medium, supplemented with 1.9 mM of CaCl2), 0.6 mM of MgCl2 and 0.1 mg/ml of bovine serum albumin.
The retina was mechanically dissociated, about 150 μl-200 μl of cell suspension was dispensed into the petri dish containing control medium. Bipolar cells were identified under a microscope by the cells morphology. The cells were incubated for 6 hours before use.
Four (4) separate Neuronal cell dishes were prepared, as follows: A) Control Retinal Neuronal cells, B) Retinal Neuronal cells incubated with ALG-1001 (Luminate) 1.0 mg/ml, C) Retinal Neuronal cells incubated with […], D) Retinal Neuronal cells incubated with Luminate 1.0 mg/ml for 24 hours before exposure to 500 μM of Kainic acid.
as §1

[1] = Human prospective open label study in Dry AMD, Best Corrected Visual Acuity; type: in vivo; conditions: individual Dry AMD patient; single intravitreal injection 1.0 mg/50 μL
Experimental: To determine if a single Luminate intravitreal injection of 1.0 mg/50 μL has any effect on improving Best Corrected Visual Acuity (BCVA) of Dry AMD subjects with moderate to moderately sever Dry AMD. This is a prospective interventional, open label, IRB approved human clinical proof of concept study conducted in 7 human subjects with moderate to moderately severe Dry AMD. Main inclusion criteria involved patients with Dry Macular Degeneration eyes with relatively intact photoreceptor and RPE layers in the central 1 mm of the macula by OCT. The baseline BCVA of the subjects was between 20/30 and 20/400 with no evidence of sub-retinal fluid or CNV and no history of Anti-VEGF treatment. All recruited patients underwent a baseline single intravitreal injection of Luminate 1.0 mg/50 μL and were monitored monthly, in addition central macular thickness, OCT, digital color photographs and pre and post treatment BCVA were obtained.

retinal ganglion cells = test: Ocular neuroprotection in vivo, rat model of elevated intraocular pressure (optic nerve ligation), ganglion cell counts; design: species or system Wister rats
Experimental: Healthy Wister rats (n=8) ten (10) weeks of age were kept in a vivarium maintained at a constant temperature of 26° C., and a constant light-dark cycle (14 hours and 10 hours respectively) with food available ad libitum. The rats were randomly divided into a Luminate treatment group of five (5) animals (Group A) and a Basic Salt Solution (BSS-control) treatment group of three (3) animals (Group B).
The animals of Group A each received a single intravitreal injection of 1.28 mg/20 μL of Luminate in the right eye. The animals of Group B each received a single intravitreal injection of 20 μL of balanced salt solution (BSS). The left eyes of all animals in Groups A and B were not injected and were used as untreated controls. The intravitreal injections were administered 2 mm posterior to the limbus in the supronasal quadrant using a 30-gauge needle attached to a 1.0 cc syringe. Care was taken to avoid damage to the lens or retina.
Twenty-four (24) hours after administration of the injections the rats were anesthetized by intraperitoneal injection of 3.0 mL/kg of a mixture of ketamine Hydrochloride (2.5 mg/mL), diazepam (2.0 mg/mL) and atropine (0.1 mg/mL). The eyes were then subjected to peritoneal conjunctival detachment of the lateral rectus muscle to expose the optic nerve. The optic nerve was then ligated with silk suture for a period of 60 minutes during which the absence of blood flow in the retina of each ligated eye was verified by inspection using a Plano contact lens. The ligatures were removed after 60 minutes, and restoration of blood flow to the retina was verified in each previously-ligated eye using the Plano contact lens.
The eyes were then enucleated and fixed for histopathological analysis. Specimens of the retina and optic nerve from each eye were dehydrated and embedded in paraffin. Horizontal sections 4 microns thick were cut and stained with hematoxylin and eosin. Under light microscopy, ganglion cell counts were counted in axial sections of the retina of each eye from ora serrata through the optic nerve. Also, in each section, the number of ganglion cells per millimeter through the total length of the retina was calculated digitally, using a measuring slide calibrated for this purpose.
Measurement of the inner plexiform layer was performed by observing the slides at a magnification of 40× no more than 1 mm from the optic nerve.
The results were subjected to statistical analysis. The results for each group were expressed as mean±standard deviation and the statistical significance between the results of the groups was evaluated by 2 way ANOVA as well as the Mann-Whitney U test. Probabilities of <0.05 were deemed to be significant.

retinal Muller cells = test: In vitro protection of retinal Muller cells against Kainic acid, Trypan blue exclusion cell count; type: cell-based, CD1 mice; conditions: 1.0 mg/ml for 24 hours before exposure to 500 μM Kainic acid (Plate D), 48 hours post exposure
Experimental: CD1 mice were euthanized by decapitation, eyes were rapidly enucleated into DMEM complement with antibiotic solution and stored overnight at room temperature. Subsequently the intact globes were incubated in DMEM containing 0.1% trypsin and 70 U/ml collagenase at 37° C. for 60 minutes.
The incubated materials were placed in a petri dish containing DMEM supplemented with 10% fetal bovine serum, and the retinas were removed without the RPE cells into small aggregates and seeded into 35 mm culture dishes. Medium was unchanged for 6 days and then replenished every 3-4 days. The cultures were maintained at 37° C. in a […]/95% O2 in a humidified incubator.
When the cell outgrowth had attained semiconfluency, (80%) retinal aggregates were removed by pipetting the medium into the dish. This operation was repeated three (3) times until a purified flat cell population was obtained. After 24 hours, the cells were exposed to the experimental conditions.
Four (4) separate Muller cell dishes were prepared, as follows: A) Control Muller cells; B) Muller cells incubated with ALG-1001 (Luminate) 1.0 mg/ml; C) Muller cells incubated with 500 μM of Kainic acid and D) Muller cells incubated with Luminate 1.0 mg/ml for 24 hours before exposure to 500 μM of Kainic acid. Forty Eight (48) hours post exposure, the cell numbers were measured using Trypan blue exclusion assay in a Neubaur Chamber.

- RPE cell count, % of the control cell count (ARPE-19 cells; 100 μM Hydrogen Peroxide alone (Plate C)): 78%
Compound: OO [Hydrogen Peroxide, Hydrogen peroxide, reference compound]

Compound: C=C(C)[C@H]1CN[C@H](C(=O)O)[C@H]1CC(=O)O [Kainic acid, reference compound]
- retinal degeneration by histopathology (Wister rat retina): dose-related retinal neurotoxisity
- neuronal cell count, % compared to Control (Retinal Neuronal cells; 100 μM Kainic acid only (Plate C)): 58%

Compound: CC(O)C(NC(=O)C(CS(=O)(=O)O)NC(=O)CNC(=O)C(CCCNC(=N)N)NC(=O)CN)C(=O)N1CCCC1C(=O)O (centres unmarked) [Luminate, Glycinyl-Arginyl-Glycinyl-Cysteic-Threonyl-Proline] (H-GRG[Cya]TP-OH; configuration not given here)
- BCVA 3 Months Post Treatment [1]: 1.0 log Mar (2×) and 1.3 log Mar and 0.20 log Mar and 0.3 log Mar and 0.6 log Mar
- BCVA 3 Months Post Treatment (Snellen) [1]: 20/200 (2×) and 20/400 and 20/32 and 20/40 and 20/80
- BCVA letters gained 3 Months Post Treatment vs baseline [1]: up to 20 letters; also recorded: Gained 15 letters; also recorded: Gained no letters; also recorded: Gained 10 letters; also recorded: Gained 20 letters
- neuronal cell count, % of Control (Retinal Neuronal cells; 1.0 mg/ml for 24 hours before exposure to 500 μM Kainic acid (Plate D)): 80%
- Difference between medians: Actual (CONTROLS vs. CASES) (retinal ganglion cells; ganglion cells per field, BSS controls minus treated): −9.000
- Difference between medians: Hodges-Lehmann (CONTROLS vs. CASES) (retinal ganglion cells; ganglion cells per field, 95.05% CI −13.00 to −6.000): −10.00
- neuroprotective effect in rat model of elevated IOP (retinal ganglion cells; intravitreal administration, p<0.0001 vs BSS (ANOVA, Mann-Whitney)): significant neuroprotective effects
- Median of column A (ganglion cells per field, CASES) (retinal ganglion cells; n = 54 fields, Mann-Whitney vs BSS controls P<0.0001): 18.00, n = 54
- SUM of ganglion cells over all fields (retinal ganglion cells; per treated eye (case), intravitreal 1.28 mg/20 μL 24 h before 60 min optic nerve ligation): 234 and 165 and 259 and 218 and 175
- RPE cell count, % of the control cell count (ARPE-19 cells; 1.0 mg/ml for 24 hours before exposure to 100 μM Hydrogen Peroxide (Plate D)): 90%
- Muller cell count compared with other plates (retinal Muller cells): higher Muller cell count than any of the other plates
